Source: US9434711B2 (Janssen Pharmaceutica, NV, priority 2007, dated 2016)

Molecular target: canine TRPM8 (Canis lupus familiaris, UniProt Q1A7N1)
Experiment: In Vitro Canine TRPM8 Functional Assay (Ca2+ fluorescence, icilin activation)
Assay type: cell-based
Conditions: for IC50: HEK293 cells stably expressing canine TRPM8, icilin activation, eight-point dose-response, read-out: IC50; for inhibition at 0.2 µM: compound at 0.2 μM, read-out: % Inh @ 0.2; for inhibition at 0.2 µM / inhibition at 0.5 µM: canine TRPM8, icilin activation; for inhibition at 0.5 µM: compound at 0.5 μM, read-out: % Inh @ 0.5
In short: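 HEK293 cells stably expressing canine TRPM8 were loaded with Calcium 3 dye (35 min at 37 °C, then 25 min at room temperature). Compound was added and Ca2+ fluorescence was read for 5 min before icilin at a concentration giving about 80% maximal response. EC50/IC50 came from eight-point dose-response curves, quadruplicate wells.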

Sequence of canine TRPM8 (Q1A7N1 1-1104): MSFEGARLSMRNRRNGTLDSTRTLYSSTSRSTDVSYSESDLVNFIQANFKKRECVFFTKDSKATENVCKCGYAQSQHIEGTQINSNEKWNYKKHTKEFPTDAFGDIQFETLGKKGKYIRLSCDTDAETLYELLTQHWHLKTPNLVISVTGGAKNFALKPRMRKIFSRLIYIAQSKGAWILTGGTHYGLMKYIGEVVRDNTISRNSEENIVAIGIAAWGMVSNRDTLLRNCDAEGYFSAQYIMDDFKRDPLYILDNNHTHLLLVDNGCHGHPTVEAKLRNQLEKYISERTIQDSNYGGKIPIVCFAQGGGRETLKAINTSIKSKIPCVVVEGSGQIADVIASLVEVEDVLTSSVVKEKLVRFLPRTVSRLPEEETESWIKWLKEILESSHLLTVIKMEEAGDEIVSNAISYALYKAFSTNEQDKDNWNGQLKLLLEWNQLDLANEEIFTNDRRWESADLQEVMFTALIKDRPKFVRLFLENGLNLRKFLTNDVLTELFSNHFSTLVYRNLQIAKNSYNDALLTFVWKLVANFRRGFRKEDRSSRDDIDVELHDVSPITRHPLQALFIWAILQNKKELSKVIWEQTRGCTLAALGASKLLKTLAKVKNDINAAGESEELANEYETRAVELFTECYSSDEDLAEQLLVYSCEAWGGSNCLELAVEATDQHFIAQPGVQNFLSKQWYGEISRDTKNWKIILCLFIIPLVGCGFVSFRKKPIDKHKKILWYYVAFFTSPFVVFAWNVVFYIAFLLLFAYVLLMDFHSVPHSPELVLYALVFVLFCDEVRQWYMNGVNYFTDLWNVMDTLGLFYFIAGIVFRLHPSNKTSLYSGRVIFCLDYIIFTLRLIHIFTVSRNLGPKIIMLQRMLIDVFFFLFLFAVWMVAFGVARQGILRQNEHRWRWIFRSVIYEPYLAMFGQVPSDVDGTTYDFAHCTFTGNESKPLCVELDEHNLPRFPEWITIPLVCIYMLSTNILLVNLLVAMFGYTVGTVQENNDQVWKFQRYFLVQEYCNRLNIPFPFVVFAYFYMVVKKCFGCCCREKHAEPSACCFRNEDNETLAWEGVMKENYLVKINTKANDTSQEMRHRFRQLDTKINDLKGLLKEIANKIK

| IC50 [nM] | inhibition at 0.2 µM [%] | inhibition at 0.5 µM [%] | SMILES |
| --- | --- | --- | --- |
| 71 | 76 |  | O=C(O)c1ccc(S(=O)(=O)N(CC(F)F)c2sc3ccccc3c2Br)cc1 [Compound 276, N-(3-Bromo-benzo[b]thiophen-2-yl)-N-(2,2-difluoro-ethyl)-4-carboxy-benzenesulfonamide] |
| 39 | 91 |  | O=C(O)c1ccc(S(=O)(=O)N(CCN2CCOCC2)c2sc3ccccc3c2Br)cc1 [Compound 277, N-(3-Bromo-benzo[b]thiophen-2-yl)-N-(2-morpholin-4-yl-ethyl)-4-carboxy-benzenesulfonamide] |
| 1 | 98 |  | O=C(O)c1ccc(S(=O)(=O)N(CC23CC4CC(CC(C4)C2)C3)c2sc3ccccc3c2Br)cc1 [Compound 278, N-(3-Bromo-benzo[b]thiophen-2-yl)-N-(adamant-1-yl-methyl)-4-carboxy-benzenesulfonamide] |
| 1.3 | 97 |  | O=C(O)c1ccc(S(=O)(=O)N(CC2CCCCC2)c2sc3ccccc3c2Br)cc1 [Compound 279, N-(3-Bromo-benzo[b]thiophen-2-yl)-N-(cyclohexylmethyl)-4-carboxy-benzenesulfonamide] |
|  | 87 |  | CCCCN(c1sc2ccccc2c1C(C)O)S(=O)(=O)CC (centres unmarked) [Compound 280, N-(Butyl)-N-[3-(1-hydroxy-ethyl)-benzo[b]thiophen-2-yl]-ethanesulfonamide] |
|  | 62 |  | CCS(=O)(=O)N(CC1CC1)c1sc2ccccc2c1C(C)O (centres unmarked) [Compound 281, N-(Cyclopropylmethyl)-N-(3-(1-hydroxyethyl)benzo[b]thiophen-2-yl)-ethanesulfonamide] |
| 70 | 86 |  | CCS(=O)(=O)N(CCC(F)(F)F)c1sc2ccccc2c1C(C)O (centres unmarked) [Compound 282, N-(3-(1-Hydroxyethyl)benzo[b]thiophen-2-yl)-N-(3,3,3-trifluoro-propyl)-ethanesulfonamide] |
| 2.5 |  | 100 | Cc1c(N(Cc2ccc(F)c(F)c2)S(=O)(=O)c2ccc(O)cc2)sc2ccccc12 [Compound 285, N-(3,4-Difluoro-benzyl)-N-(3-methyl-benzo[b]thiophen-2-yl)-4-hydroxy-benzenesulfonamide] |
| 7 |  | 99 | Cc1c(N(Cc2ccc(F)c(F)c2)S(=O)(=O)c2cccc(O)c2)sc2ccccc12 [Compound 286, N-(3,4-Difluoro-benzyl)-N-(3-methyl-benzo[b]thiophen-2-yl)-3-hydroxy-benzenesulfonamide] |
| 29.8 |  | 96 | O=S(=O)(c1ccccc1)N(Cc1cccc(O)c1)c1cc2ccccc2s1 [Compound 287, N-(Benzo[b]thiophen-2-yl)-N-(3-hydroxy-benzyl)-benzenesulfonamide] |
| 20 | 90 |  | O=S(=O)(c1cccc(O)c1)N(Cc1ccc(F)c(C(F)(F)F)c1)c1sc2ccccc2c1Cl [Compound 288, N-(3-Chloro-benzo[b]thiophen-2-yl)-N-(4-fluoro-3-trifluoromethyl-benzyl)-3-hydroxy-benzenesulfonamide] |
| 27 | 92 |  | O=S(=O)(c1ccc(O)cc1)N(Cc1ccc(F)c(C(F)(F)F)c1)c1sc2ccccc2c1Cl [Compound 289, N-(3-Chloro-benzo[b]thiophen-2-yl)-N-(4-fluoro-3-trifluoromethyl-benzyl)-4-hydroxy-benzenesulfonamide] |
| 5.3 | 103 |  | O=S(=O)(c1ccc(O)cc1)N(Cc1ccc(F)c(C(F)(F)F)c1)c1sc2ccccc2c1Br [Compound 290, N-(3-Bromo-benzo[b]thiophen-2-yl)-N-(4-fluoro-3-trifluoromethyl-benzyl)-4-hydroxy-benzenesulfonamide] |

| SMILES | IC50 [nM] | inhibition at 0.2 µM [%] | inhibition at 0.5 µM [%] |
| --- | --- | --- | --- |
| CCS(=O)(=O)N(CCOC(C)(C)C)c1sc2ccccc2c1C(C)O (centres unmarked) [Compound 283, N-(2-tert-Butoxyethyl)-N-(3-(1-hydroxyethyl)benzo[b]thiophen-2-yl)-ethanesulfonamide] | 92 | 82 |  |
